Data: patent US6150393A (priority 1999, dated 2000)

Assays:
[1] = test system: human mutated 5HT2A receptor, AP-3; experiment: Receptor-mediated inositol phosphate (IP3) accumulation, AP-3; format: cell-based
Protocol: On day one, 1×10^7 293 cells per 150 mm plate were plated out. On day two, two reaction tubes were prepared (the proportions to follow for each tube are per plate): tube A was prepared by mixing 20 μg DNA (e.g., pCMV vector; pCMV vector AP-1 cDNA, etc.) in 1.2 ml serum free DMEM (Irvine Scientific, Irvine, Calif.); tube B was prepared by mixing 120 μl lipofectamine (Gibco BRL) in 1.2 ml serum free DMEM. Tubes A and B were then admixed by inversions (several times), followed by incubation at room temperature for 30-45 min. The admixture is referred to as the "transfection mixture". Plated 293 cells were washed with 1×PBS, followed by addition of 10 ml serum free DMEM. 2.4 ml of the transfection mixture was then added to the cells, followed by incubation for 4 hrs at 37° C./5% CO2. On day 3, cells were trypsinized and counted, followed by plating of 1×10^6 cells/well (poly D-lysine treated 12-well plates). Cells were permitted to adhere to the wells, followed by one wash with 1×PBS. Thereafter, 0.5 μCi ^3 H-inositol in 1 ml inositol-free DMEM was added per well. Protocol B.
On day 4, the cells were washed with 0.5 ml PBS and then 0.45 ml of assay medium was added containing inositol-free/serum free media, 10 μM pargyline, 10 mM lithium chloride, or 0.4 ml of assay medium and 50 ul of 10× ketanserin (ket) to a final concentration of 10 μM. The cells were then incubated for 30 minutes at 37° C. Then the cells were washed with 0.5 ml PBS and 200 ul of fresh/ice cold stop solution (1M KOH; 18 mM Na-borate; 3.8 mM EDTA) was added/well. The solution was kept on ice for 5-10 minutes or until the cells were lysed and then neutralized by 200 μl of fresh/ice cold neutralization sol. (7.5% HCL). The lysate was then transferred into 1.5 ml microcentrifuge tubes and 1 ml of chloroform/methanol (1:2) was added/tube. The solution was vortexed for 15 seconds and the upper phase was applied to a Biorad AG1-X8 anion exchange resin (100-200 mesh). The resin was washed with water and 0.9 ml of the upper phase was loaded onto the column. The column was washed with 10 mls of 5 mM myo-inositol and 10 ml of 5 mM Na-borate/60 mM Na-formate. The inositol trisphosphates were eluted into scintillation vials containing 10 ml of scintillation cocktail with 2 ml of 0.1 M formic acid/1 M ammonium formate. The columns were regenerated by washing with 10 ml of 0.1 M formic acid/3M ammonium formate and rinsed twice with dd H2 O and stored at room temperature in water.
Candidate compound identified in the assays of Examples 9a-9c were then evaluated for inositol phosphate accumulation, following the protocol of Example 5 ([…] expressing human mutated 5HT2A receptor, AP-3), modified as follows: tube A was prepared by mixing 16 μg DNA (e.g., pCMV vector; pCMV vector AP-1 cDNA, etc.) in 1.0 ml serum free DMEM (Irvine Scientific, Irvine, Calif.); tube B was prepared by mixing 60 μl lipofectamine (Gibco BRL) in 1.0 ml serum free DMEM. Tubes A and B were then admixed by inversions (several times), followed by incubation at room temperature for 30 min. The admixture is referred to as the "transfection mixture". Plated 293 cells were washed with 10 ml Serum Free DMEM, followed by addition of 11 ml Serum Free DMEM. 2.0 ml of the transfection mixture was then added to the cells, followed by incubation for 5 hrs at 37° C./5% CO2. On day 3, cells were trypsinized and counted, followed by plating of 1×10^6 cells/well (12-well plates). Cells were permitted to adhere to the wells for 8 hrs, followed by one wash with 1×PBS. Thereafter, 0.5 μCi ^3 H-inositol in 1 ml inositol-free DMEM was added per well.
On day 4, the cells were washed with 1.5 ml PBS and then 0.9 ml of assay medium was added containing inositol-free/serum free media, 10 μM pargyline, 10 mM lithium chloride, for 5 min in 37° C./5% CO2 followed by 100 μl addition of candidate compound diluted in the same material. The cells were then incubated for 120 minutes at 37° C. […]

5HT2 receptors [2] = experiment: DOI locomotor activity test in rats (DOI inhibition study), intraperitoneal test compound; format: in vivo, rat (male Sprague-Dawley); conditions: i.p. 30 min before DOI (0.3 mg/kg s.c.)
Protocol: (§1) FIG. 3 provides a graphic summary of dose-response results from in vivo analysis of compound 116082 in a 1-(2,5-dimethoxy-4-iodophenyl)-2-aminopropane ("DOI") inhibition study (fine movement; ambulation; and animal rearing outcome measures). 116082 was administered 30 min prior to DOI. Animals were placed in locomotor activity cages 10 min after DOI administration and activity was measured for 10 min. Results are presented as total activity counts over the 10 min of exposure to the locomotor activity apparatus.
as §1, with “FIG. 4” for “FIG. 3”, “compound 116081” for “compound 116082”, “a DOI” for “a 1-(2,5-dimethoxy-4-iodophenyl)-2-aminopropane ("DOI")”, “measures). 116081” for “measures). 116082”
Assessment of 5-HT2 receptor antagonism in vivo was made by using the DOI locomotor activity test in rats as described by Krebs-Thomson (Psychopharmacology, 140:69-74, 1998).
Motor function was assessed by using automated locomotor activity cages. The rats were placed in a standard rodent cage surrounded by photocell beams, which allow for automated recording of motor activity. […]

[3] = Bar catalepsy test in rats (extrapyramidal side effect analysis); format: in vivo, rat (male Sprague-Dawley)
[4] = DOI inhibition study in rats, oral administration of test compound (oral availability); format: in vivo, rat; conditions: in vivo; rat; 50 mg/kg oral vs 10 mg/kg i.p., inferred from DOI test
Protocol: (§2) FIG. 6 provides a graphic summary of the effects of oral administration of 116082 and 116081 in a DOI inhibition study in rats. Values represent the mean±SEMs (n=6/group). #P<0.05 vs. vehicle/vehicle, *P<0.05 vs. vehicle/DOI, Student t-test.
(§3) Based upon the in vivo data developed, oral bioavailability of compounds […] was considered. The compounds were administered by oral gavage at a dose of 50 mg/kg, 30 min prior to DOI in rats (see Example 11A, supra). Animals were placed in the locomotor activity cages 10 min after DOI administration and activity was measured for 10 min. Results, presented in FIG. 6, provide total activity counts over the 10 min of exposure to the locomotor activity apparatus.

5HT2 receptors [5] = experiment: as above; format: in vivo, rat
Protocol: as §2, §3

[6] = test system: human 5HT2A receptor compared with human 5HT2C receptor; experiment: Selectivity for 5HT2A over 5HT2C receptor (as measured by IC50 values); format: binding
5HT2 receptors [7] = conditions: peripheral administration, 0.3 mg/kg; cited from earlier work
[8] = rodents; cited from earlier work
[9] = format: in vivo, rat (male Sprague-Dawley); conditions: i.p.; total activity counts over 120 min after MK-801
Protocol: FIG. 7 provides a graphic summary of the reversal of MK-801-induced hyperactivity using 116081 (7A) and clozapine (7B). […] 116081 produced a significant reversal of the effect of MK-801 at a dose of 25 μmol/kg (10 mg/kg). Results are presented as total activity counts over the 120 min of exposure to the locomotor activity apparatus after administration of MK-801. Data (mean±SEM) were analyzed by ANOVA followed by Dunnett's test (n=6-8/group).
Because part of the symptomatology of schizophrenia may be related to altered glutamate transmission at the NMDA receptor, the reversal of MK-801-induced hyperlocomotor activity in rodents has been used routinely as an animal model for detecting potential antipsychotic activity (O'Neill et al., Pharmacology Biochem. Behav., 63: 237-243, 1999). Thus, this test was used to determine potential antipsychotic properties of 116081 in vivo.
Motor activity was assessed using automated locomotor activity cages as described above (Example 11(A), supra.). Male Sprague-Dawley rats (250-350 g body weight) were administered test compounds (i.p.) and placed in the locomotor activity cages for 30 min of habituation. Following habituation,animals were administered MK-801 (0.5 μmol/kg=0.17 mg/kg, s.c.) and then immediately placed back into the locomotor activity cages, and activity was measured for 120 min. A reversal of MK-801-induced motor activity (as shown by a significant […] of ambulation) in rats is considered to be predictive of the ability of the test compound to reverse psychotic symptoms.

In the case of Cn1cc(Br)c(-c2cccc(NC(=O)Nc3ccc(F)cc3)c2)n1 [Compound 116082, {[3-(4-bromo-1-methylpyrazol-3-yl)phenyl]amino}-N-(4-fluorophenyl)carboxamide], the “IP3 % of Control” value ([1]; 10 μM test compound, triplicate, control without test compound) is reported as 11%, the “profile in in vitro functional assays” value ([1]; in vitro functional assays) is reported as “selective 5HT2A inverse agonist properties” and the “reversal of DOI-induced motor dysfunction” value (5HT2 receptors [2]) is reported as “beneficially reverses DOI-induced motor dysfunction”. For the same compound, the extra-pyramidal side effects ([3]; at a dose 8 times greater than the dose required to block 5HT2A receptors in vivo) was “does not induce extra-pyramidal side effects in rats”, the induction of catalepsy ([3]; i.p., 10 to 80 mg/kg) was “does not induce catalepsy in rats” and the “time spent on the bar” value ([3]; i.p., 10 to 80 mg/kg, 60 min before test) was “did not induce a dose-dependent increase in time spent on the bar”. For the same compound, the selectivity ratio ([3]; rat, in vivo, ip, bar test versus DOI test, rats, read-out: dose without extra-pyramidal side effects relative to dose required to block 5HT2A receptors in vivo) was 8, the bioavailability [4] was ≥ 20% and the “oral efficacy compared with intraperitoneal administration” value (5HT2 receptors [5]; 50 mg/kg oral vs 10 mg/kg i.p.) was “as efficacious as a 10 mg/kg dose of the same compounds administered intraperitoneally”. For the same compound, the “reversal of DOI-induced motor dysfunction, oral” value (5HT2 receptors [5]; oral gavage 50 mg/kg, 30 min prior to DOI) was “reversed DOI-induced motor dysfunction in rats”, the oral activity (5HT2 receptors [5]; rat, DOI test, 50 mg/kg oral) was “orally active” and the “selectivity preference for the 5HT2A receptor compared with the 5HT2C receptor” value [6] was 100 fold.
In the case of COc1cc(CC(C)N)c(OC)cc1I (stereo not drawn) [DOI, 1-(2,5-dimethoxy-4-iodophenyl)-2-aminopropane], the “motor function effect of DOI alone” value (5HT2 receptors [7]) is given as “produces motor dysfunction in rats as shown by a decrease in ambulation”.
In the case of C[C@]12N[C@H](Cc3ccccc31)c1ccccc12 [MK-801], the “effect of MK-801 alone on locomotor activity and stereotypy” value [8] is listed as “induces significant increases in locomotor activity and stereotypy”.
For CN1CCN(C2=Nc3cc(Cl)ccc3Nc3ccccc32)CC1 [clozapine, reference compound], the “attenuation of MK-801-induced hyperactivity (ambulations)” value [9] was “dose-dependently attenuated MK801-induced hyperactivity”.
